Experimental data published in patent publication US20090076032A1, “Derivatives of 18Beta-Glycyrrhetinic Acid” (priority 2006, published 2009).
Read-outs that look alike come from different tables or passages of the source.

Key:
[1] = test system: normal human keratinocytes (NHEKa); assay type: cell-based; conditions: 24 hours
Procedure: The cells used were normal human keratinocytes (NHEKa). All cells were cultured in T75 flasks according to the supplier's guidelines for maintenance of stocks. Frozen stocks of cells that had gone through two passages were seeded into T25 flasks at a seeding density of 2.5×10^3 cells per cm^2. The cells were then left to grow over 5 days with media changes being carried out every two days.
Cell culture treatment media were prepared for all the test compounds at four concentrations, namely 1 μM, 2.5 μM, 5 μM and 10 μM (final concentration). Control treatments on cells of normal media (no treatment) and DMSO were also carried out.
All treatment media were sterilised by filtration and added to the T25 flasks after removal of spent media. The cells were then incubated at 37° C. for 24 hours. The treatment media were removed from the T25 flasks and the cells washed with 5 ml of PBS before 1 ml of Trypsin/EDTA (TE) (Cascade, Mansfield, UK) solution was added to the flaks and left for approximately 8-10 minutes for the cells to lift off the growth surface. The trypsin was neutralised with 3 ml Trypsin Neutraliser (TN) (Cascade). The cells were then harvested and transferred to a separate 15 ml centrifuge tube for each treatment regime. The cells were spun at 180×g for 7 minutes and the medium was removed.
The cells were resuspended in 1 ml of ice cold PBS before being transferred to a microcentrifuge tube and spun at 200×g for 2 minutes. The PBS was removed and the cells were resuspended in 100 μl of binding buffer (10 mM Hepes, 140 mM NaCl, 2.5 mM CaCl2, pH 7.4) before the addition of 5 μl of a propidium iodide (PI) staining solution (BD Biosciences, Cowley, UK). The cells were incubated at 20° C. for 5 minutes before the addition of 300 μl of binding buffer followed by immediate analysis by flow cytometry. Cells taking up the PI stain were dead, cells not staining with PI were viable. The level of staining within the cells could be viewed by flow cytometry.
This type of analysis takes account of the natural variability in the growth and survival of different batches of cells. Data presented are from three repeats +SEM.

[2] = test system: Normal human keratinocyte (NHEKa) cells; assay: NHEKa cell proliferation assay (ATP levels, CellTitre-Glo), example 11; assay type: cell-based
Procedure: Normal human keratinocyte (NHEKa) cells were cultured in the presence and absence of set concentrations of the five 18β-glycyrrhetinic acid derivatives, in multi-well assay plates (96), over a five-day period. The cells, seeded at a density of 5,000 or 2,500 cells per well, were cultured in keratinocyte growth medium (KGM) (Cascade Biologics), to which retinol and various concentrations of the 18β-glycyrrhetinic acid derivatives dissolved in KGM and DMSO were added. Control treatments included KGM only, KGM and retinol, and KGM and DMSO.
After the five-day period, cell proliferation was determined by assay of ATP levels (directly associated with cell density) using a commercially available kit (CellTitre-Glo, Promega). In the presence of suitable controls, reduced proliferation (cell growth measured by ATP generation) indicates an anti-proliferative effect of a given 18β-glycyrrhetinic acid derivative.

NHEKa cells = assay: NHEKa cell viability/proliferation assay, amended plate design (ATP luminescence), example 12; conditions: retinol 500 nM; for luminescence compared to the controls: 2.5 μM inhibitor
Procedure: To obtain a direct comparison of each inhibitor compared with carbenoxolone, the design of the assay was amended, so that each plate contained a range of different inhibitors at the same concentration compared to carbenoxolone. This removed inter-plate variation when comparing inhibitors used at the same concentration.
The medium (200 μl in each well) was replaced after 24 and 72 hours of growth with fresh pre-warmed medium containing retinol (500 nM final concentration) and the indicated inhibitor, consequently the length of treatment was 72 hours.

[3] = molecular target: T1, recombinant human retinol dehydrogenase enzyme 2 (hRoDH-E2) (Homo sapiens, UniProt Q9BPW9); assay: Spectrometric hRoDH-E2 activity assay (retinal generation at 400 nm); assay type: biochemical; conditions: E. coli RIL (+hRoDH-E2) SS, 15.625-250 μM, 2.5% DMSO, 125 μM retinol
T1 construct: host or cells: E. coli RIL
Procedure: A reaction mix was prepared, consisting of a buffered solution containing excess retinol (10 mM HEPES, 150 mM KCl, 2 mM EDTA, pH 8.0; 0.02% Tween 80; 125 μM retinol). Preliminary experiments concluded that sufficient cofactor was present in the crude enzyme source, therefore, this was not supplemented into the reaction buffer. The enzyme source was provided by the BioCatalysis Centre, University of Exeter, as a crude sonicated supernatant (SS) from harvested E. coli RIL cells transfected with the hRoDH-E2 expression vector. […] The reaction, initiated by the addition of enzyme (accounting for 5% total reaction volume), was monitored at 400 nm to measure the generation of retinal from retinol. The rate of retinal generation was determined as the change in milli-absorbance units per minute (mAbs/min).
Multi-well assay plates (96) were preloaded with DMSO (2.5% final reaction volume), containing inhibitor where required. […] The contents of each well were mixed by aspiration and the plate loaded into a multi-well plate reader set at 37° C. The generation of retinal was monitored at 400 nm over 30 minutes, during which time the reaction reached maximum velocity under uninhibited conditions after 600 seconds and began to decelerate after 1200 seconds in each case tested. […]

[4] = all four concentrations (1, 2.5, 5 and 10 μM)

T1 sequence (Q9BPW9 18-319): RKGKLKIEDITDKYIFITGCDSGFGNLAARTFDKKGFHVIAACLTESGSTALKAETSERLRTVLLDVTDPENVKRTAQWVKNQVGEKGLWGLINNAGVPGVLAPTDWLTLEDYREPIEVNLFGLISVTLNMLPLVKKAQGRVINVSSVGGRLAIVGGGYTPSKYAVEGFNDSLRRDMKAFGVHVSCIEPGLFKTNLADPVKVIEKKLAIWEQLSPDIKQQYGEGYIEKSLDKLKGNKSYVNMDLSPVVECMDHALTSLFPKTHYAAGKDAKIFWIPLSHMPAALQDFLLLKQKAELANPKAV

| Compound | viability of NHEKa cells (proportion of viable cells referenced to DMSO) [1, 4] | luminescence compared to the controls (NHEKa cells) | further results |
| --- | --- | --- | --- |
| CC1(C)[C@@H](OC(=O)[C@@H]2CCCC[C@@H]2C(=O)O)CC[C@]2(C)[C@H]3C(=O)C=C4[C@@H]5C[C@@](C)(C(=O)O)CC[C@]5(C)CC[C@@]4(C)[C@]3(C)CC[C@@H]12 (mixture of isomers) [YP024, cis-Cyclohexane-1,2-dicarboxylic acid mono-((3S,4aR,6aR,6bS,8aS,11S, 12aR,14aR,14bS)-11-carboxy-4,4,6a,6b,8a,11,14b-heptamethyl-14-oxo-1,2,3,4,4a,5,6,6a,6b, 7,8,8a,9,10,11,12, 12a, 14, 14a, 14b-icosahydro-picen-3-yl) ester] | slight increase in viability | – | – |
| COC(=O)[C@@]1(C)CC[C@]2(C)CCC3(C)C(=CC(=O)C4[C@@]5(C)CC[C@H](OC(=O)c6ccccc6C(=O)O)C(C)(C)C5CC[C@]43C)[C@@H]2C1 (stereo in doubt) [YP015, Phthalic acid mono-(11-methoxycarbonyl-4,4,6a,6b,8a,11,14b-heptamethyl-14-oxo-1,2,3,4,4a,5,6,6a,6b,7,8,8a,9, 10,11,12,12a, 14,14a, 14b-icosahydro-picen-3-yl) ester] | no decrease in viability | – | anti-proliferative properties compared with carbenoxolone sodium ([2]; at equal concentrations): more potent |
| CC(=O)CC(=O)OC1CCC2(C)C(CCC3(C)C2C(=O)C=C2C4CC(C)(C(=O)O)CCC4(C)CCC23C)C1(C)C (stereo not shown) [YP016, 2,4a,6a,6b,9,9,12a-Heptamethyl-13-oxo-10-(3-oxo-butyryloxy)-1,2,3,4,4a,5,6,6a,6b, 7,8,8a,9,10,11,12, 12a,12b,13,14b-icosahydro-picene-2-carboxylic acid] | no decrease in viability | – | – |
| CC(C)(CC(=O)O[C@H]1CC[C@]2(C)[C@H]3C(=O)C=C4[C@@H]5C[C@@](C)(C(=O)O)CC[C@]5(C)CC[C@@]4(C)[C@]3(C)CC[C@H]2C1(C)C)C(=O)O [YP022, 2,2-Dimethyl-succinic acid 4-((3S,4aR,6aR,6bS,8aS,11S,12aR,14aR,14bS)-11-carboxy-4,4,6a,6b,8a,11,14b-heptamethyl-14-oxo-1,2,3,4,4a,5,6,6a,6b,7,8,8a,9,10,11,12, 12a,14,14a, 14b-icosahydro-picen-3-yl) ester] | – | significantly less luminescence | – |
| CC1(C)[C@@H](OC(=O)C2=C(C(=O)O)CCC2)CC[C@]2(C)[C@H]3C(=O)C=C4[C@@H]5C[C@@](C)(C(=O)O)CC[C@]5(C)CC[C@@]4(C)[C@]3(C)CC[C@@H]12 [YP026, Cyclopent-1-ene-1,2-dicarboxylic acid mono-((3S,4aR,6aR,6bS,8aS,11S,12aR, 14aR,14bS)-11-carboxy-4,4,6a,6b,8a,11,14b-heptamethyl-14-oxo-1,2,3,4,4a,5,6,6a,6b,7,8,8a,9,10,11,12,12a,14,14a, 14b-icosahydro-picen-3-yl) ester] | slight increase in viability | significantly less luminescence | – |
| CC1(C)[C@@H](OC(=O)CCC(=O)O)CC[C@]2(C)[C@H]3C(=O)C=C4[C@@H]5C[C@@](C)(C(=O)O)CC[C@]5(C)CC[C@@]4(C)[C@]3(C)CC[C@@H]12 [carbenoxolone sodium, reference compound] | – | – | effect on NHEKa cell proliferation (ATP levels compared to the controls) ([2]; five-day culture, with retinol, various concentrations): suppresses NHEKa cell proliferation |
| CC1(C)[C@@H](OC(=O)CCC(=O)O)CC[C@]2(C)[C@H]3C(=O)C=C4[C@@H]5C[C@@](C)(C(=O)O)CC[C@]5(C)CC[C@@]4(C)[C@]3(C)CC[C@@H]12 [carbenoxolone, reference compound] | – | significantly less luminescence | viability of NHEKa cells (proportion of viable cells referenced to DMSO) ([1]; 1 μM and 2.5 μM): slight decrease in viability; inhibition of recombinant hRoDH-E2 activity (generation of retinal from retinol) [3]: reduce the generation of retinal from retinol; luminescence detected compared to the untreated control (NHEKa cells; 5.0 μM inhibitor): 41% |
| trans-Cyclohexane-1,2-dicarboxylic acid mono-((3S,4aR,6aR,6bS,8aS,11S, 12aR,14aR,14bS)-11-carboxy-4,4,6a,6b,8a,11,14b-heptamethyl-14-oxo-1,2,3,4,4a,5,6,6a,6b, 7,8,8a,9,10,11,12,12a,14,14a, 14b-icosahydro-picen-3-yl) ester [YP023] | slight increase in viability | – | – |
